What was measured:
Nrf2 = Nrf2 activity in ARE-luciferase-transfected HaCaT keratinocytes; type: cell-based; details: 6 hours
Protocol: The effect of the extract of the invention was evaluated with respect to activation of translocation of Nrf2, precursor of the cascade responsible for the hormetic response and for certain detoxification pathways of the organism.
ARE-luciferase-transfected HaCaT keratinocytes, containing the antioxidant response element (ARE) plasmid NQO1, which is a specific plasmid for activation of Nrf2 and luciferase (reporter gene), were treated for 6 hours at 37° C. with an extract of the invention, as obtained in Example 1, at concentrations ranging from 0.01% to 0.0005% (w/v) and with a positive reference, 20 μM tert-butylhydroquinone.
At the end of the treatment, the cell monolayers are lysed, luciferase activity is assayed using a “Luciferase Assay Kit” from PROMEGA, and the protein content of each lysate is assayed using the Bradford method (BioRad).

[1] = system: keratinocytes treated with 9 μg/ml BaP; assay: ROS production in keratinocytes treated with 9 μg/ml BaP (H2DCF-DA probe); type: cell-based, human; details: 24 hours, then 9 μg/ml BaP 20 minutes
Protocol: The keratinocytes were then stimulated with 9 μg/ml benzo-α-pyrene (BaP) for 20 minutes. ROS production was evaluated by measurement of fluorescence.
(§1) The significance of the results was verified by Student's t-test.

prostaglandin E2 (PGE2) = assay: PGE2 production in PMA-treated keratinocytes; type: cell-based, human; details: 10^−6 M, 24 hours pretreatment, then PMA 0.1 μg/ml 24 hours
Protocol: The anti-inflammatory protection of an extract of the invention with respect to a chemical molecule, PMA, was studied by analysis of the release of prostaglandin 2 (PGE2).
Normal human keratinocytes were pretreated with a 0.002% and a 0.005% extract of the invention, as obtained in Example 1, and with 10^−6 M indomethacin (anti-inflammatory control of the prostaglandin pathway) for 24 hours at 37° C., in order to be able to measure a level of protection of the active agent with respect to inflammation by 0.1 μg/ml PMA (phorbol 12-myristate 13-acetate) used on these same cell monolayers for a further 24 hours. At the end of the treatment, the supernatants are collected and an assay of prostaglandin E2 (PGE2; R&D Systems) is performed. Staining, proportional to the amount of PGE2, was measured by reading the optical density (OD) at 450 nm.
as §1

[2] = system: H2O2-treated keratinocytes; assay: ROS production in H2O2-treated keratinocytes (H2DCF-DA probe); type: cell-based, human; details: 24 hours, then 100 μM H2O2 20 minutes
Protocol: The antioxidant potential of an extract of the invention with respect to H2O2 induction of reactive oxygen species was studied.
Normal human keratinocytes were incubated for 24 hours in the presence of a 0.002%, a 0.005% and a 0.01% (w/v) extract of the invention, as obtained in Example 1, or of 500 μM vitamin C and 10 μM quercetin (reference antioxidants) before incorporation of the H2DCF-DA probe (incubation for 60 minutes).
The keratinocytes were then stimulated with 100 μM hydrogen peroxide (H2O2) for 20 minutes and the production of reactive oxygen species (ROS) was evaluated by measurement of fluorescence.
(§2) The results were statistically analysed by one-way ANOVA followed by Tukey's test (GraphPad PRISM version 5.02 software, GraphPad Software, San Diego, Calif., USA).

[3] = system: keratinocytes treated by UV at 2400 J/m^2; assay: ROS production in keratinocytes treated by UV at 2400 J/m^2; type: cell-based, human; details: 500 μM
Protocol: The antioxidant potential of an extract of the invention with respect to UV-irradiation-induced reactive oxygen species (ROS) was studied.
Normal human keratinocytes were incubated for 24 hours in the presence of a 0.001% and a 0.005% (w/v) extract of the invention, as obtained in Example 1, or of 500 μM vitamin C (reference antioxidant), before incorporation of the H2DCF-DA probe (incubation for 1 hour).
The keratinocytes were then stimulated with UV at 2400 J/m^2 (2000 J/m^2 UVB and 400 J/m^2 UVA) then returned to culture in the presence of a 0.001% and a 0.005% (w/v) extract of the invention, as obtained in Example 1, or of 500 μM vitamin C, for 15 minutes at 37° C.
The production of reactive oxygen species (ROS) was evaluated by measurement of fluorescence and the value obtained was normalized to the quantity of cells obtained using an MTT cell viability assay.
as §2

haem oxygenase 1 (HMOX1) = assay: HMOX1 production by fibroblasts (ELISA); type: cell-based, human; details: 24 hours
Protocol: An extract of the invention was analysed on the protein expression of haem oxygenase.
Normal human fibroblasts were treated for 24 hours with a 0.002% and a 0.005% (w/v) extract of the invention, as obtained in Example 1, and with 5 and 10 μM curcumin (reference hormetin).
At the end of the treatment, intracellular haem oxygenase 1 (or HMOX1 or H01) was quantified using an ELISA technique. Staining, proportional to the quantity of the marker of interest, was measured by reading the optical density (OD) at 450 nm, and the value obtained was related to the quantity of cells obtained by a protein assay using the BC Assay (Interchim).
The results were statistically analysed by one-way ANOVA followed by Dunnett's test (GraphPad PRISM version 5.02 software, GraphPad Software, San Diego, Calif., USA).

MMP1 = assay: IR-induced production of MMP1 in normal human fibroblasts (ELISA); type: cell-based; details: 10^−7 M, 48 hours after IR 0.57 kJ/cm^2
Protocol: The ability of an extract of the invention to protect dermal cells from the harmful effects of IR rays was studied by evaluating MMP1 production.
Normal human fibroblasts (NHF) were incubated in the presence of a 0.001% extract of the invention, as obtained in Example 1, or of 10^−7 M dexamethasone (reference anti-inflammatory) for 48 hours following 1 hour of infrared irradiation (0.57 kJ/cm^2).
After incubation, the supernatants are collected in order to assay released MMP1 (ELISA Kit, R&D Systems).
as §1

SMILES: CC(C)(C)c1cc(O)ccc1O [Tert-butylhydroquinone, tert-butylhydroquinone]
- Nrf2 activity (mean normalized RLU/μg of proteins) (Nrf2; 20 μM): 23216.4 RLU/μg of proteins
- Nrf2 Activation (%) (Nrf2; 20 μM (positive reference = 100)): 100%

SMILES: Oc1ccc(C=Cc2cc(O)cc(O)c2)cc1 [resveratrol]
- ROS % change (Significance) ([1]; 10 μM): −21%
- ROS (fluorescence units) ([1]; 10 μM): 20357 ± 503 fluorescence units

SMILES: COc1ccc2c(c1)c(CC(=O)O)c(C)n2C(=O)c1ccc(Cl)cc1 [Indomethacin, indomethacin]
- PGE2 (prostaglandin E2 (PGE2)): 52 ± 8 pg/mL
- inhibition at 1 µM (prostaglandin E2 (PGE2); Homo sapiens, Keratinocyte): 100%

SMILES: O=c1c(O)c(-c2ccc(O)c(O)c2)oc2cc(O)cc(O)c12 [quercetin]
- ROS % change (Significance) ([2]; 10 μM): −67%
- ROS (fluorescence units) ([2]; 10 μM): 14367.847 ± 1790.753 fluorescence units
- ROS % change (Significance) ([1]; 10 μM): −32%
- ROS (fluorescence units) ([1]; 10 μM): 17140 ± 1930 fluorescence units

SMILES: O=C1O[C@H]([C@@H](O)CO)C(O)=C1O [vitamin C]
- ROS (fluorescence intensity/MTT) ([3]; UV 2400 J/m^2): 26005 ± 3723 fluorescence intensity/MTT
- ROS % change ([3]; UV 2400 J/m^2, vs control with UVs): −40%
- ROS % change (Significance) ([2]; 500 μM): −51%
- ROS (fluorescence units) ([2]; 500 μM): 21719.018 ± 3174.253 fluorescence units
- ROS % change (Significance) ([1]; 500 μM): −16%
- ROS (fluorescence units) ([1]; 500 μM): 14089 ± 1719 fluorescence units

SMILES: COc1cc(/C=C/C(=O)CC(=O)/C=C/c2ccc(O)c(OC)c2)ccc1O [Curcumin, curcumin]
- HMOX1 (ng/ml on quantity of cells) (haem oxygenase 1 (HMOX1); 5 μM): 0.060 ± 0.002 ng/ml on quantity of cells
- HMOX1 (ng/ml on quantity of cells) (haem oxygenase 1 (HMOX1); 10 μM): 0.105 ± 0.006 ng/ml on quantity of cells
- ROS % change (Significance) ([1]; 10 μM): −16%
- ROS (fluorescence units) ([1]; 10 μM): 14065 ± 1231 fluorescence units

SMILES: C[C@@H]1C[C@H]2[C@@H]3CCC4=CC(=O)C=C[C@]4(C)[C@@]3(F)[C@@H](O)C[C@]2(C)[C@@]1(O)C(=O)CO [Dexamethasone, dexamethasone]
- % protection (IR-induced MMP1) (MMP1): 102%
- MMP1 (MMP1): 9.3 ng/mL

— US11596662B2, “Passion flower seed extract, and cosmetic, pharmaceutical or dermatological compositions containing same” (priority 2015, dated 2023)
